Measured values from the supplement of paper PMC8253809.

Legend:
HGGX42 = H3.3 G34R paediatric high-grade glioma line; assay: growth inhibition relative to DMSO (0) and positive control (1) (fraction); higher = more growth inhibition
Procedure: (§1)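 Paxalisib (GDC0084) x mirdametinib (PD0325901) dose matrix on pHGG cell lines and astrocyte controls, 7 days, adherent 384-well. CellTiter-Glo RLU was normalised (no log2) to fractional activity between DMSO (0) and the positive control (1). Each combination was tested in two plate orientations.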

HABS = astrocyte control; assay: as above
Procedure: as §1

O=C(NOC[C@H](O)CO)c1ccc(F)c(F)c1Nc1ccc(I)cc1F + CC1(C)OCCn2c1nc1c(N3CCOCC3)nc(-c3cnc(N)nc3)nc12 [GDC0084]
growth inhibition
Details | compound 1 concentration 0.009766 µM | compound 1 concentration 0.01953 µM | compound 1 concentration 0.03906 µM | compound 1 concentration 0.07812 µM | compound 1 concentration 0.15625 µM | compound 1 concentration 0.3125 µM | compound 1 concentration 0.625 µM | compound 1 concentration 1.25 µM | compound 1 concentration 5 µM | compound 1 concentration 20 µM
HABS, compound 2 concentration 0.03906 µM | -0.277 | -0.277 | -0.363 | -0.35 | -0.36 | -0.157 | 0.0702 | 0.206 | 0.655 | 0.785
HABS, compound 2 concentration 0.07812 µM | -0.0837 | -0.115 | -0.185 | -0.276 | -0.182 | -0.0585 | 0.174 | 0.282 | 0.686 | 0.84
HABS, compound 2 concentration 0.15625 µM | 0.00867 | -0.00819 | -0.125 | -0.152 | -0.102 | 0.0679 | 0.212 | 0.368 | 0.765 | 0.893
HABS, compound 2 concentration 0.3125 µM | 0.0584 | 0.00491 | -0.0298 | -0.035 | -0.004 | 0.119 | 0.251 | 0.39 | 0.784 | 0.918
HABS, compound 2 concentration 0.625 µM | 0.158 | 0.129 | 0.116 | 0.0817 | 0.117 | 0.224 | 0.337 | 0.487 | 0.849 | 0.948
HABS, compound 2 concentration 1.25 µM | 0.352 | 0.341 | 0.305 | 0.259 | 0.336 | 0.387 | 0.482 | 0.573 | 0.912 | 0.98
HABS, compound 2 concentration 5 µM | 0.731 | 0.725 | 0.702 | 0.703 | 0.706 | 0.689 | 0.739 | 0.792 | 0.974 | 0.997
HABS, compound 2 concentration 20 µM | 0.963 | 0.956 | 0.951 | 0.939 | 0.938 | 0.927 | 0.938 | 0.957 | 0.998 | 1
HGGX42, compound 2 concentration 0.03906 µM | 0.121 | 0.215 | -0.0211 | 0.146 | -0.0192 | 0.0136 | 0.0247 | 0.074 | 0.354 | 0.554
HGGX42, compound 2 concentration 0.07812 µM | 0.188 | 0.255 | 0.106 | 0.265 | 0.148 | 0.0907 | 0.211 | 0.153 | 0.575 | 0.609
HGGX42, compound 2 concentration 0.15625 µM | 0.307 | 0.29 | 0.478 | 0.322 | 0.224 | 0.377 | 0.32 | 0.341 | 0.477 | 0.686
HGGX42, compound 2 concentration 0.3125 µM | 0.494 | 0.466 | 0.484 | 0.515 | 0.431 | 0.424 | 0.294 | 0.326 | 0.507 | 0.716
HGGX42, compound 2 concentration 0.625 µM | 0.673 | 0.632 | 0.625 | 0.647 | 0.57 | 0.606 | 0.602 | 0.528 | 0.674 | 0.8
HGGX42, compound 2 concentration 1.25 µM | 0.782 | 0.743 | 0.746 | 0.753 | 0.748 | 0.706 | 0.723 | 0.703 | 0.803 | 0.895
HGGX42, compound 2 concentration 5 µM | 0.875 | 0.86 | 0.872 | 0.883 | 0.882 | 0.872 | 0.881 | 0.876 | 0.93 | 0.979
HGGX42, compound 2 concentration 20 µM | 0.898 | 0.898 | 0.901 | 0.911 | 0.908 | 0.899 | 0.907 | 0.908 | 0.956 | 0.986
